Species on record: Rattus norvegicus
Assay: Open TG-GATES - Regimen: Single
Format: toxicity, organism-based, Sprague-Dawley
Design: regimen Single, gender Male, age 6 weeks
Details: in vivo, po, route gavage; for gamma-GTP / ALP / ALT / AST / CRE / DBIL / IP / K / LDH / Na / RALB / TBIL / TC / TG / TP: tissue Plasma; for Bas / Eos / Fbg / Hb / Lym / MCH / MCHC / MCV / Mono / Neu / PT / RBC / Ret / APTT / WBC: tissue Blood; for KIDNEY_L / KIDNEY_R / KIDNEY_TOTAL: tissue Kidney

With `Cc1cnc(NC(=O)C2=C(O)c3ccccc3S(=O)(=O)N2C)s1` [MELOXICAM] the gamma-GTP (0 mg/kg, 24 h, dose level Control) was 1 IU/L, the TERMINAL_BW (10 mg/kg, 3 h, dose level Low) was 224.9 g and the Bas (10 mg/kg, 3 h, dose level Low) was 0.6%. It also gave an Eos (10 mg/kg, 3 h, dose level Low) of 1%, a Fbg (10 mg/kg, 3 h, dose level Low) of 239 mg/dL and a Hb (10 mg/kg, 3 h, dose level Low) of 13.3 g/dL. It also gave a Lym (10 mg/kg, 3 h, dose level Low) of 78%, an MCH (10 mg/kg, 3 h, dose level Low) of 20.8 pg and an MCHC (10 mg/kg, 3 h, dose level Low) of 33.6%. It also gave an MCV (10 mg/kg, 3 h, dose level Low) of 62 fL, a Mono (10 mg/kg, 3 h, dose level Low) of 2% and a Neu (10 mg/kg, 3 h, dose level Low) of 18.2%. It also gave a PT (10 mg/kg, 3 h, dose level Low) of 12.2 s, an RBC (10 mg/kg, 3 h, dose level Low) of 638.8 x10_4/ul and a Ret (10 mg/kg, 3 h, dose level Low) of 7.2%. For the same compound, the KIDNEY_L (10 mg/kg, 3 h, dose level Low) was 1 g, the KIDNEY_R (10 mg/kg, 3 h, dose level Low) was 1 g and the KIDNEY_TOTAL (10 mg/kg, 3 h, dose level Low) was 2 g. The ALP (10 mg/kg, 3 h, dose level Low) was 867.6 IU/L, the ALT (10 mg/kg, 3 h, dose level Low) was 31.8 IU/L and the AST (10 mg/kg, 3 h, dose level Low) was 65.8 IU/L. For the same compound, the CRE (10 mg/kg, 3 h, dose level Low) was 0.3 mg/dL, the DBIL (10 mg/kg, 3 h, dose level Low) was 0.06 mg/dL and the IP (10 mg/kg, 3 h, dose level Low) was 9 mg/dL. It also gave a K (10 mg/kg, 3 h, dose level Low) of 4 meq/L, an LDH (10 mg/kg, 3 h, dose level Low) of 138 IU/L and a Na (10 mg/kg, 3 h, dose level Low) of 141 meq/L. For the same compound, the RALB (10 mg/kg, 3 h, dose level Low) was 3.3 g/dL, the TBIL (10 mg/kg, 3 h, dose level Low) was 0.1 mg/dL and the TC (10 mg/kg, 3 h, dose level Low) was 73.6 mg/dL. It also gave a TG (10 mg/kg, 3 h, dose level Low) of 62.6 mg/dL, a TP (10 mg/kg, 3 h, dose level Low) of 5.5 g/dL and a gamma-GTP (10 mg/kg, 3 h, dose level Low) of 0.8 IU/L. For the same compound, the TERMINAL_BW (10 mg/kg, 6 h, dose level Low) was 223 g, the APTT (10 mg/kg, 6 h, dose level Low) was 17.8 s and the Bas (10 mg/kg, 6 h, dose level Low) was 0.6%. For the same compound, the Eos (10 mg/kg, 6 h, dose level Low) was 0.6%, the Fbg (10 mg/kg, 6 h, dose level Low) was 211.6 mg/dL and the Hb (10 mg/kg, 6 h, dose level Low) was 13.5 g/dL. It also gave a Lym (10 mg/kg, 6 h, dose level Low) of 77.4%, an MCH (10 mg/kg, 6 h, dose level Low) of 20.7 pg and an MCHC (10 mg/kg, 6 h, dose level Low) of 33.6%. The MCV (10 mg/kg, 6 h, dose level Low) was 61.8 fL, the Mono (10 mg/kg, 6 h, dose level Low) was 2.6% and the Neu (10 mg/kg, 6 h, dose level Low) was 18.6%. It also gave an RBC (10 mg/kg, 6 h, dose level Low) of 648.4 x10_4/ul, a Ret (10 mg/kg, 6 h, dose level Low) of 6.4% and a WBC (10 mg/kg, 6 h, dose level Low) of 95.9 x10_2/uL. For the same compound, the KIDNEY_L (10 mg/kg, 6 h, dose level Low) was 1 g, the KIDNEY_R (10 mg/kg, 6 h, dose level Low) was 1 g and the KIDNEY_TOTAL (10 mg/kg, 6 h, dose level Low) was 2.1 g. The ALP (10 mg/kg, 6 h, dose level Low) was 957 IU/L, the ALT (10 mg/kg, 6 h, dose level Low) was 37.2 IU/L and the AST (10 mg/kg, 6 h, dose level Low) was 70.6 IU/L. It also gave a CRE (10 mg/kg, 6 h, dose level Low) of 0.3 mg/dL, a DBIL (10 mg/kg, 6 h, dose level Low) of 0.062 mg/dL and an IP (10 mg/kg, 6 h, dose level Low) of 9 mg/dL. The K (10 mg/kg, 6 h, dose level Low) was 3.9 meq/L, the LDH (10 mg/kg, 6 h, dose level Low) was 163.8 IU/L and the Na (10 mg/kg, 6 h, dose level Low) was 141 meq/L. The RALB (10 mg/kg, 6 h, dose level Low) was 3.2 g/dL, the TBIL (10 mg/kg, 6 h, dose level Low) was 0.1 mg/dL and the TC (10 mg/kg, 6 h, dose level Low) was 66.8 mg/dL. It also gave a TG (10 mg/kg, 6 h, dose level Low) of 64.4 mg/dL, a TP (10 mg/kg, 6 h, dose level Low) of 5.2 g/dL and a gamma-GTP (10 mg/kg, 6 h, dose level Low) of 1 IU/L. For the same compound, the TERMINAL_BW (10 mg/kg, 9 h, dose level Low) was 220.5 g, the APTT (10 mg/kg, 9 h, dose level Low) was 17.8 s and the Bas (10 mg/kg, 9 h, dose level Low) was 0%. It also gave an Eos (10 mg/kg, 9 h, dose level Low) of 0.8%, a Fbg (10 mg/kg, 9 h, dose level Low) of 216.6 mg/dL and a Hb (10 mg/kg, 9 h, dose level Low) of 13.4 g/dL. For the same compound, the Lym (10 mg/kg, 9 h, dose level Low) was 77.8%, the MCH (10 mg/kg, 9 h, dose level Low) was 21 pg and the MCHC (10 mg/kg, 9 h, dose level Low) was 34%. The MCV (10 mg/kg, 9 h, dose level Low) was 62.1 fL, the Mono (10 mg/kg, 9 h, dose level Low) was 2.8% and the Neu (10 mg/kg, 9 h, dose level Low) was 17.8%. The RBC (10 mg/kg, 9 h, dose level Low) was 637.8 x10_4/ul, the Ret (10 mg/kg, 9 h, dose level Low) was 6.7% and the KIDNEY_L (10 mg/kg, 9 h, dose level Low) was 1 g. It also gave a KIDNEY_R (10 mg/kg, 9 h, dose level Low) of 1 g, a KIDNEY_TOTAL (10 mg/kg, 9 h, dose level Low) of 2.1 g and an ALP (10 mg/kg, 9 h, dose level Low) of 759.6 IU/L. The ALT (10 mg/kg, 9 h, dose level Low) was 35 IU/L, the AST (10 mg/kg, 9 h, dose level Low) was 66 IU/L and the CRE (10 mg/kg, 9 h, dose level Low) was 0.4 mg/dL. It also gave a DBIL (10 mg/kg, 9 h, dose level Low) of 0.06 mg/dL, an IP (10 mg/kg, 9 h, dose level Low) of 9.5 mg/dL and a K (10 mg/kg, 9 h, dose level Low) of 3.9 meq/L. For the same compound, the LDH (10 mg/kg, 9 h, dose level Low) was 176.6 IU/L, the Na (10 mg/kg, 9 h, dose level Low) was 141.8 meq/L and the RALB (10 mg/kg, 9 h, dose level Low) was 3.4 g/dL. The TBIL (10 mg/kg, 9 h, dose level Low) was 0.1 mg/dL, the TC (10 mg/kg, 9 h, dose level Low) was 69.4 mg/dL and the TG (10 mg/kg, 9 h, dose level Low) was 41.6 mg/dL. For the same compound, the TP (10 mg/kg, 9 h, dose level Low) was 5.3 g/dL, the gamma-GTP (10 mg/kg, 9 h, dose level Low) was 1 IU/L and the TERMINAL_BW (10 mg/kg, 24 h, dose level Low) was 237.5 g. The Bas (10 mg/kg, 24 h, dose level Low) was 0.2%, the Eos (10 mg/kg, 24 h, dose level Low) was 0.8% and the Fbg (10 mg/kg, 24 h, dose level Low) was 214 mg/dL. The Hb (10 mg/kg, 24 h, dose level Low) was 13.1 g/dL, the Lym (10 mg/kg, 24 h, dose level Low) was 74.4% and the MCH (10 mg/kg, 24 h, dose level Low) was 21.8 pg. It also gave an MCHC (10 mg/kg, 24 h, dose level Low) of 33.9%, an MCV (10 mg/kg, 24 h, dose level Low) of 64.2 fL and a Mono (10 mg/kg, 24 h, dose level Low) of 3.2%. For the same compound, the Neu (10 mg/kg, 24 h, dose level Low) was 20.8%, the PT (10 mg/kg, 24 h, dose level Low) was 11.8 s and the RBC (10 mg/kg, 24 h, dose level Low) was 601.4 x10_4/ul. It also gave a Ret (10 mg/kg, 24 h, dose level Low) of 7%, a WBC (10 mg/kg, 24 h, dose level Low) of 133.5 x10_2/uL and a KIDNEY_L (10 mg/kg, 24 h, dose level Low) of 1.1 g. For the same compound, the KIDNEY_R (10 mg/kg, 24 h, dose level Low) was 1.1 g, the KIDNEY_TOTAL (10 mg/kg, 24 h, dose level Low) was 2.2 g and the ALP (10 mg/kg, 24 h, dose level Low) was 959.4 IU/L. It also gave an ALT (10 mg/kg, 24 h, dose level Low) of 36.8 IU/L, an AST (10 mg/kg, 24 h, dose level Low) of 70 IU/L and a CRE (10 mg/kg, 24 h, dose level Low) of 0.4 mg/dL. The DBIL (10 mg/kg, 24 h, dose level Low) was 0.082 mg/dL, the IP (10 mg/kg, 24 h, dose level Low) was 7.9 mg/dL and the K (10 mg/kg, 24 h, dose level Low) was 4.2 meq/L. For the same compound, the LDH (10 mg/kg, 24 h, dose level Low) was 177.8 IU/L, the Na (10 mg/kg, 24 h, dose level Low) was 141 meq/L and the RALB (10 mg/kg, 24 h, dose level Low) was 3.2 g/dL. It also gave a TBIL (10 mg/kg, 24 h, dose level Low) of 0.1 mg/dL, a TC (10 mg/kg, 24 h, dose level Low) of 72 mg/dL and a TG (10 mg/kg, 24 h, dose level Low) of 84.4 mg/dL.

— ChEMBL document CHEMBL3885861, “Open TG-GATES”
